One data set deals with T1, tScCBS (Saccharomyces cerevisiae, UniProt P32582).
T1 construct: 6xHis (C); made in house
T1 sequence (P32582 1-345): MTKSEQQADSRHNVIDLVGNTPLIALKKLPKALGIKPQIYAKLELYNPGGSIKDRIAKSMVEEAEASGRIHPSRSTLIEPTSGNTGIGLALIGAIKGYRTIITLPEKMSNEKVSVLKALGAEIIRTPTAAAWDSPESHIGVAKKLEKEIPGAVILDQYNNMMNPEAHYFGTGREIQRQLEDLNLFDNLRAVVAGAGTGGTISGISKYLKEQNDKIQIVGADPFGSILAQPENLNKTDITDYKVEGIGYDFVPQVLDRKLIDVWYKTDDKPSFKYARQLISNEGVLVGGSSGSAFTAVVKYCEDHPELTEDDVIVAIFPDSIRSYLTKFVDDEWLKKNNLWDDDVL
Briefly: Fluorescence emission titration of tScCBS (PLP excitation at 410 nm). The format is binding. The conditions noted are these: tScCBS 1 mg/mL, pH 8.5; decrease in emission at 520 nm, excitation 410 nm; read-out: Dissociation constant Kd (fluorescence). As for the experimental part: CBS enzymes. Recombinant truncated Saccharomyces cerevisiae CBS lacking the C-terminal regulatory domain (residues 346–507) and carrying the C-terminal 6xHis tag (tScCBS) was prepared as described previously. Engineered recombinant Homo sapiens CBS lacking a loop protruding from the central β-strand of the CBS2 domain corresponding to the residues 516–525 (HsCBS; described in detail in [21]) was purchased from GenScript.
UV − Vis and fluorescence spectroscopy. Absorption spectra were collected on a Tecan Infinite M200 Pro spectrophotometer in a buffer containing 50 mM Tris–HCl pH 8.5, 20 mM NaCl and 0.5 mM tris(2-carboxyethyl)phosphine (TCEP). All the spectra were carried out with a protein concentration of 1 mg/mL with a 1 cm path-length quartz cuvette in a total volume of 150 µL. tScCBS was titrated directly in a cuvette by successive additions of different concentrations of AOAA, Ser and Cys, respectively, and spectra were recorded between 240 and 600 nm after an incubation time of 3 min at RT. Fluorescence emission spectra were collected under the same conditions upon PLP excitation at 410 nm. Blank spectra were subtracted from sample spectra.

Data set [1] deals with HEK293 cells. Kind of data set: Cell viability (MTT). The format is cell-based, human. The conditions noted are these: Ser 0.15–10 mM. As for the experimental part: (§1) Cell culture. The human embryonic kidney cell line HEK293 (ATCC CRL-1573) was cultured in Dulbecco’s Modified Eagle Medium (DMEM) containing 4.5 g/L glucose. The culture medium was supplemented with 10% (v/v) heat-inactivated fetal bovine serum, 2 mM Glutamax, non-essential amino acids, 100 U/ml penicillin and 100 μg/ml streptomycin. Cells were grown in a humidified incubator at 37 °C and 5% CO2 atmosphere. Cell viability and proliferation were assessed using MTT and BrdU assay, respectively, essentially as described previously.

Data set [2] has as its system HEK293 cells. Kind of data set: Cell proliferation (BrdU). The conditions noted are these: Ser concentrations above 3 mM, 'up to'. The class given is cell-based, human. As for the experimental part: as §1

SMILES strings stand for the structures.

For orientation: Kd means the concentration at which binding is half-saturated. With `N[C@@H](CO)C(=O)O` [Ser, serine], at tScCBS, the dissociation constant (Kd) came out at 39.5 ± 8.26 µM. The Cell viability result in the data set with HEK293 cells [1] is “did not affect”. Also, the “Increase of cellular proliferation” value with HEK293 cells [2] is ~ 18%.

The values are drawn from PMC9304066, “H2S biogenesis by cystathionine beta-synthase: mechanism of inhibition by aminooxyacetic acid and unexpected role of serine” (Cellular and Molecular Life Sciences: CMLS, 2022).
